Measured values: ChEMBL document CHEMBL1149864, “Benzofused N-substituted cyclic enediynes: activation and DNA-cleavage potential” (Bioorg Med Chem, 2008)
Blank lines part the entries; values can stand above or below the compound they belong to. Active and inactive are the calls of the source. The calls are words filed in the database; no cut-off is given here.

Columns and labels:
Escherichia coli [1] = test: Induction of Escherichia coli pBR322 DNA cleavage at 0.4 uM at pH 7.5 after 24 hrs
Escherichia coli [2] = test: Induction of Escherichia coli pBluescript SK+ DNA cleavage assessed as generation of form 3 at 20 uM at pH 8.0 after 48 hrs
Escherichia coli [3] = test: Induction of Escherichia coli pBR322 DNA cleavage at 0.4 uM at pH 8.5 after 24 hrs
Escherichia coli [4] = test: Induction of Escherichia coli pBR322 DNA cleavage at 0.4 uM at pH 8.0 after 24 hrs
Escherichia coli [5] = test: Induction of Escherichia coli pBluescript SK+ DNA cleavage assessed as generation of form 3 at 20 uM at pH 8.0 after 12 hrs
[6] = Chemical stability assessed as half life at 50 degC; format: physicochemical
Escherichia coli [7] = test: Induction of Escherichia coli pBR322 DNA cleavage assessed as generation of form 3 at 20 uM at pH 8.0 after 24 hrs
Escherichia coli [8] = test: Induction of Escherichia coli pBR322 DNA cleavage assessed as generation of form 3 at 20 uM at pH 8.0 after 12 hrs
[9] = Chemical stability assessed as half life at 30 degC; format: physicochemical
[10] = Chemical stability assessed as half life at 70 degC; format: physicochemical
[11] = Chemical stability assessed as half life at 60 degC; format: physicochemical
Escherichia coli [12] = test: Induction of Escherichia coli pBR322 DNA cleavage assessed as generation of form 3 at 20 uM at pH 8.0 after 48 hrs

Structure (SMILES): O=[N+]([O-])c1ccc(S(=O)(=O)N2CC#Cc3ccc([N+](=O)[O-])cc3C#CCC2)cc1
half-life [10]: 12 h
half-life [11]: 138 h

Structure (SMILES): O=[N+]([O-])c1ccc(S(=O)(=O)N2CC#Cc3cc([N+](=O)[O-])c([N+](=O)[O-])cc3C#CCC2)cc1
half-life [10]: 9.5 h

Structure (SMILES): O=[N+]([O-])c1ccc2c(c1)C#CCCNCC#C2
Activity (Escherichia coli [12]): Active
Activity (Escherichia coli [7]): Active

Further lines, results first:

Activity (Escherichia coli [1]): Active
Activity (Escherichia coli [2]): inactive
Activity (Escherichia coli [3]): Active
Activity (Escherichia coli [4]): Active
Activity (Escherichia coli [5]): inactive
half-life [6]: 130 h
Activity (Escherichia coli [7]): Active
Activity (Escherichia coli [8]): Active
half-life [9]: 770 h
Structure (SMILES): C1#Cc2ccccc2C#CCNCC1.Cc1ccc(S(=O)(=O)O)cc1

half-life [10]: 48 h
Structure (SMILES): Cc1ccc(S(=O)(=O)N2CC#Cc3ccccc3C#CCC2)cc1
